Source: ChEMBL document CHEMBL1135170, “4,4-Disubstituted cyclohexylamine NK(1) receptor antagonists II” (Bioorg Med Chem Lett, 2002)

Experiments:
[1] = molecular target: Voltage-gated inwardly rectifying potassium channel KCNH2 (Homo sapiens, UniProt Q12809); assay: Compound was evaluated for the displacement of labelled MK-499 from the cloned channel expressed in HEK cells (Ikr channel); type: cell-based, HEK293
Substance-P receptor = Substance-P receptor (Homo sapiens, UniProt P25103); assay: Displacement of [125 I] -labelled substance P from the cloned Tachykinin receptor 1 expressed in CHO cells; type: cell-based
Substance-P receptor, sequence (P25103 whole entry): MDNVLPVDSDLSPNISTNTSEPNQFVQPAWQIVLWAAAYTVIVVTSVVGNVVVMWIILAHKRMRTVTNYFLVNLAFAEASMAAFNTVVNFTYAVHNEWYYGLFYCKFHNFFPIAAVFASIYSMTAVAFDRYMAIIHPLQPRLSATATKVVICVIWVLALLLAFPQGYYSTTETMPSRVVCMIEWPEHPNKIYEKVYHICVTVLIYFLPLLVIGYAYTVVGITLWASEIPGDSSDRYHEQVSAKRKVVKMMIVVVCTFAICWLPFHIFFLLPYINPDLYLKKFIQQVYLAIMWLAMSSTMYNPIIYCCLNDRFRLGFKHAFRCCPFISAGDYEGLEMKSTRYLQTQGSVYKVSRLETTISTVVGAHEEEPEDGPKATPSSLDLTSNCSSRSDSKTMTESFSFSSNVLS

Gerbillinae [2] = assay: Compound was evaluated for the inhibition of GR 73632-induced foot tapping in gerbils after intravenous administration at 24 hr; type: functional; conditions: read-out: ID50 (the source's name)
Gerbillinae [3] = assay: Compound was evaluated for the inhibition of GR 73632-induced foot tapping in gerbils after intravenous administration at 24 hr at a concentration of 3 mg/kg; type: functional
Gerbillinae [4] = assay: Compound was evaluated for the inhibition of GR 73632-induced foot tapping in gerbils after intravenous administration at 2 hour; type: functional; conditions: read-out: ID50 (the source's name)
Gerbillinae [5] = assay: Compound was evaluated for the inhibition of GR 73632-induced foot tapping in gerbils 2 hour after oral administration; type: functional; conditions: read-out: ID50 (the source's name)
Gerbillinae [6] = assay: Compound was evaluated for the inhibition of GR 73632-induced foot tapping in gerbils after intravenous administration at 0 (initial) hour; type: functional; conditions: read-out: ID50 (the source's name)
Gerbillinae [7] = assay: Compound was evaluated for the inhibition of GR 73632-induced foot tapping in gerbils after intravenous administration at 2 hour at a dose 3 mg/kg iv; type: functional
[8] = Bioavailability in rat; type: ADME, organism-based; conditions: in vivo
Gerbillinae [9] = assay: Compound was evaluated for the inhibition of GR 73632-induced foot tapping in gerbils after intravenous administration; type: functional; conditions: read-out: ID50 (the source's name)

Voltage-gated inwardly rectifying potassium channel KCNH2, sequence (Q12809 whole entry): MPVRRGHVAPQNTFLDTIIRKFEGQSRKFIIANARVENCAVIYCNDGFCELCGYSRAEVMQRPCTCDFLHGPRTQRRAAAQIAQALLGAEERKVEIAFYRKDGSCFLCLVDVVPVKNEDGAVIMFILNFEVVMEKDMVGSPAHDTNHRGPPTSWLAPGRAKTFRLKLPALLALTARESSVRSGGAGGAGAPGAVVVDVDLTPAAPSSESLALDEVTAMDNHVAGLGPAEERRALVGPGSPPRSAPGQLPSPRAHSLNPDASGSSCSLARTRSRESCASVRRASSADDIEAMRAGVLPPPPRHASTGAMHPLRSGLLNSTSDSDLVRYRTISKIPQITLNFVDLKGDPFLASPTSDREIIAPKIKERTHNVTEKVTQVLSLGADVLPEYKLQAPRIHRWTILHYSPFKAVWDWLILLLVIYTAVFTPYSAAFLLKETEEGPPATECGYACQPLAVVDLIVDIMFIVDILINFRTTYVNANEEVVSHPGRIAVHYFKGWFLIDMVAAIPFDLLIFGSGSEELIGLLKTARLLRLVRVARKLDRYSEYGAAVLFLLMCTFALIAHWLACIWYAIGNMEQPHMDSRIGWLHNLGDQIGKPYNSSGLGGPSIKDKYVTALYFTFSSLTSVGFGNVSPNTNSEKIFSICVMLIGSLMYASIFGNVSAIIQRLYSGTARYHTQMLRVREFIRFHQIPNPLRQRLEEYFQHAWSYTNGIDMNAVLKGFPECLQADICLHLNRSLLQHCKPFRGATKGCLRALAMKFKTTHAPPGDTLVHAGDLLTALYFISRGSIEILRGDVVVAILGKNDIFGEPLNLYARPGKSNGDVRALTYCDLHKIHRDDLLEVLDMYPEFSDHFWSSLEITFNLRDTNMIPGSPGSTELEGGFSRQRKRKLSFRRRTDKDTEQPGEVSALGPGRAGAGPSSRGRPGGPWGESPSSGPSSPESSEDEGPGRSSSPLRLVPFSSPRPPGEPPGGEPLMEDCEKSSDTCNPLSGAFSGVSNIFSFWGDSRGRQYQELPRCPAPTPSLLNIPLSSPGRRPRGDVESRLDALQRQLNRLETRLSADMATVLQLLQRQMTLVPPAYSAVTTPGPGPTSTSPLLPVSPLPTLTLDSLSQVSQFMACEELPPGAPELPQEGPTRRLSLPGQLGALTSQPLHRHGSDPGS

IC50 (Substance-P receptor) | Structure (SMILES) | Ki [1] | further results
1.2 nM | CC1CCN([C@H]2CC[C@](NC(=O)C(C)c3cc(C(F)(F)F)cc(C(F)(F)F)c3)(c3ccccc3)CC2)CC1 (some centres not stated) | 460 nM | 
0.3 nM | CC(C(=O)N[C@]1(c2ccccc2)CC[C@@H](N2CCC3(CC2)OCCO3)CC1)c1cc(C(F)(F)F)cc(C(F)(F)F)c1 (some centres not stated) |  | ED50 (Gerbillinae [2]): 5.4 mg/kg
0.35 nM | CC(C(=O)NC1(c2ccccc2)CCC(N2CCC3(CC2)CCC(C)(C)O3)CC1)c1cc(C(F)(F)F)cc(C(F)(F)F)c1 (configuration not stated) | 950 nM | inhibition in vivo at 3 mg/kg (Gerbillinae [3]): 72%; ED50 (Gerbillinae [4]): 1 mg/kg
2.4 nM | CC(C(=O)N[C@]1(c2ccccc2)CC[C@H](N2CCCCC2)CC1)c1cc(C(F)(F)F)cc(C(F)(F)F)c1 (some centres not stated) |  | 
0.33 nM | CC(C(=O)NC1(c2ccccc2)CCC(N2CCC(O)(Cc3ccccc3)CC2)CC1)c1cc(C(F)(F)F)cc(C(F)(F)F)c1 (configuration not stated) | 260 nM | 
0.42 nM | CC(C(=O)NC1(c2ccccc2)CCC(N2CCC3(CCOC3=O)CC2)CC1)c1cc(C(F)(F)F)cc(C(F)(F)F)c1 (configuration not stated) | 490 nM | 
0.39 nM | CC(C(=O)N[C@]1(c2ccccc2)CC[C@@H](N2CCN(C(C)C)CC2)CC1)c1cc(C(F)(F)F)cc(C(F)(F)F)c1 (some centres not stated) |  | 
22 nM | CC(C(=O)N[C@]1(c2ccccc2)CC[C@H](N(C)C)CC1)c1cc(C(F)(F)F)cc(C(F)(F)F)c1 (some centres not stated) |  | 
0.34 nM | CC(C(=O)NC1(c2ccccc2)CCC(N2CCC3(CCOC3)CC2)CC1)c1cc(C(F)(F)F)cc(C(F)(F)F)c1 (configuration not stated) |  | ED50 (Gerbillinae [5]): 2.2 mg/kg; ED50 (Gerbillinae [6]): 1.4 mg/kg; ED50 (Gerbillinae [2]): 1.6 mg/kg; ED50 (Gerbillinae [4]): 1.1 mg/kg
2.1 nM | CC(C(=O)NC1(c2ccccc2)CCC(N2CCC3(CCC(=O)O3)CC2)CC1)c1cc(C(F)(F)F)cc(C(F)(F)F)c1 (configuration not stated) | 400 nM | 
 | CC(C(=O)N[C@]1(c2ccccc2)CC[C@@H](N2CCC(c3ccc(F)cc3)CC2)CC1)c1cc(C(F)(F)F)cc(C(F)(F)F)c1 (some centres not stated) | 43 nM | ED50 (Gerbillinae [6]): 1.7 mg/kg; ED50 (Gerbillinae [2]): 1.8 mg/kg; ED50 (Gerbillinae [4]): 0.6 mg/kg
0.85 nM | CC(C(=O)N[C@]1(c2ccccc2)CC[C@@H](N2CCC(O)CC2)CC1)c1cc(C(F)(F)F)cc(C(F)(F)F)c1 (some centres not stated) | 1400 nM | 
1.6 nM | CC(C(=O)N[C@]1(c2ccccc2)CC[C@@H](N2CCC(=O)CC2)CC1)c1cc(C(F)(F)F)cc(C(F)(F)F)c1 (some centres not stated) |  | 
0.22 nM | CC(C(=O)NC1(c2ccccc2)CCC(N2CCC3(CCCO3)CC2)CC1)c1cc(C(F)(F)F)cc(C(F)(F)F)c1 (configuration not stated) | 730 nM | ED50 (Gerbillinae [2]): 3.1 mg/kg; ED50 (Gerbillinae [4]): 0.7 mg/kg
0.34 nM | O=C(NCc1cc(C(F)(F)F)cc(C(F)(F)F)c1)[C@]1(c2ccccc2)CC[C@@H](N2CCC(c3ccc(F)cc3)CC2)CC1 |  | inhibition in vivo at 3 mg/kg (Gerbillinae [7]): 15%; bioavailability [8]: 70%; ED50 (Gerbillinae [9]): 1.9 mg/kg
